From patent publication US12655116B2, “Substituted isophthalic acid diamides” (Bayer Aktiengesellschaft, priority 2020, dated 2026)

Legend:
VIOTR [1] = assay: Pre-emergence herbicidal action against VIOTR; format: in vivo, Viola tricolor; conditions: Viola tricolor, 504 h; for pest or weed control at 20 g/ha: dosage 20 g/ha; for pest or weed control at 80 g/ha: dosage 80 g/ha
Outline: (§1)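 Herbicidal effect was assessed 3 weeks after treatment by visual comparison with untreated controls, 100% denoting dead plants. Aqueous WP or EC preparations had been applied at 600 to 800 l/ha with 0.2% wetting agent to the soil covering freshly sown seeds.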

ECHCG [2] = assay: Pre-emergence herbicidal action against ECHCG; format: in vivo, Echinochloa crus-galli; conditions: Echinochloa crus-galli, 504 h, 80 g/ha
Outline: as §1

ALOMY [3] = assay: Post-emergence herbicidal action against ALOMY; format: in vivo, Alopecurus myosuroides; conditions: Alopecurus myosuroides, 504 h, dosage 20 g/ha, visual assessment about 3 weeks after treatment vs untreated controls
Outline: (§2)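 Herbicidal effect was scored visually in percent after about 3 weeks in the greenhouse. Plants had been raised in sandy loam and treated post-emergence at the one-leaf stage with formulated compound at 600 to 800 l/ha water plus 0.2% wetting agent.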

PHBPU [4] = assay: Post-emergence herbicidal action against PHBPU; format: in vivo, Pharbitis purpurea; conditions: Ipomoea purpurea, 504 h; for pest or weed control at 20 g/ha: dosage 20 g/ha
Outline: as §2

MATIN [5] = assay: Post-emergence herbicidal action against MATIN; format: in vivo, Matricaria inodora; conditions: Tripleurospermum inodorum, 504 h; for pest or weed control at 20 g/ha: dosage 20 g/ha
Outline: as §2

ECHCG [6] = assay: Post-emergence herbicidal action against ECHCG; format: in vivo, Echinochloa crus-galli; conditions: Echinochloa crus-galli, 504 h; for pest or weed control at 20 g/ha: dosage 20 g/ha
Outline: as §2

POLCO [7] = assay: Pre-emergence herbicidal action against POLCO; format: in vivo, Polygonum convolvulus; conditions: Fallopia convolvulus, 504 h, dosage 80 g/ha
Outline: as §1

ABUTH [8] = assay: Pre-emergence herbicidal action against ABUTH; format: in vivo, Abutilon theophrasti; conditions: Abutilon theophrasti, 504 h; for pest or weed control at 80 g/ha: scored visually after 3 weeks vs untreated controls (100% = plants have died, 0% = like control plants); for pest or weed control at 20 g/ha: dosage 20 g/ha, scored visually after 3 weeks vs untreated controls, 100% = plants have died, 0% = like control plants, read-out: Pre-emergence action against ABUTH (herbicidal activity in percent)
Outline: as §1

HORMU [9] = assay: Pre-emergence herbicidal action against HORMU; format: in vivo, Hordeum murinum; conditions: Hordeum murinum, 504 h; 80 g/ha, pre-emergence
Outline: as §1

MATIN [10] = assay: Pre-emergence herbicidal action against MATIN; format: in vivo, Matricaria inodora; conditions: Tripleurospermum inodorum, 504 h; for pest or weed control at 20 g/ha: dosage 20 g/ha; for pest or weed control at 80 g/ha: dosage 80 g/ha
Outline: as §1

VIOTR [11] = assay: Post-emergence herbicidal action against VIOTR; format: in vivo, Viola tricolor; conditions: Viola tricolor, 504 h
Outline: as §2

AMARE [12] = assay: Post-emergence herbicidal action against AMARE; format: in vivo, Amaranthus retroflexus; conditions: Amaranthus retroflexus, 504 h, 20 g/ha, visual assessment about 3 weeks after treatment, 100% = plants have died, 0% = like control plants
Outline: as §2

ABUTH [13] = assay: Post-emergence herbicidal action against ABUTH; format: in vivo, Abutilon theophrasti; conditions: Abutilon theophrasti, 504 h, visual assessment about 3 weeks after treatment vs untreated controls; for pest or weed control at 5 g/ha: dosage 5 g/ha; for pest or weed control at 20 g/ha: dosage 20 g/ha
Outline: as §2

AVEFA [14] = assay: Post-emergence herbicidal action against AVEFA; format: in vivo, Avena fatua; conditions: Avena fatua, 504 h, 20 g/ha, visual assessment about 3 weeks after treatment, 100% = plants have died, 0% = like control plants
Outline: as §2

AVEFA [15] = assay: Pre-emergence herbicidal action against AVEFA; format: in vivo, Avena fatua; conditions: Avena fatua, 504 h, pre-emergence; for pest or weed control at 20 g/ha: scored visually after 3 weeks, 100% = plants have died, 0% = like control plants
Outline: as §1

POLCO [16] = assay: Post-emergence herbicidal action against POLCO; format: in vivo, Polygonum convolvulus; conditions: Fallopia convolvulus, 504 h, dosage 20 g/ha
Outline: as §2

STEME [17] = assay: Post-emergence herbicidal action against STEME; format: in vivo, Stellaria media; conditions: Stellaria media, 504 h; for pest or weed control at 5 g/ha: dosage 5 g/ha
Outline: as §2

SETVI [18] = assay: Post-emergence herbicidal action against SETVI; format: in vivo, Setaria viridis; conditions: Setaria viridis, 504 h; for pest or weed control at 5 g/ha: dosage 5 g/ha; for pest or weed control at 20 g/ha: dosage 20 g/ha
Outline: as §2

SETVI [19] = assay: Pre-emergence herbicidal action against SETVI; format: in vivo, Setaria viridis; conditions: Setaria viridis, 504 h; for pest or weed control at 20 g/ha: dosage 20 g/ha; for pest or weed control at 80 g/ha: dosage 80 g/ha
Outline: as §1

DIGSA [20] = assay: Pre-emergence herbicidal action against DIGSA; format: in vivo, Digitaria sanguinalis; conditions: Digitaria sanguinalis, 504 h; for pest or weed control at 20 g/ha: dosage 20 g/ha; for pest or weed control at 80 g/ha: dosage 80 g/ha
Outline: as §1

VERPE [21] = assay: Pre-emergence herbicidal action against VERPE; format: in vivo, Veronica persica; conditions: Veronica persica, 504 h, dosage 80 g/ha
Outline: as §1

DIGSA [22] = assay: Post-emergence herbicidal action against DIGSA; format: in vivo, Digitaria sanguinalis; conditions: Digitaria sanguinalis, 504 h
Outline: as §2

AMARE [23] = assay: Pre-emergence herbicidal action against AMARE; format: in vivo, Amaranthus retroflexus; conditions: Amaranthus retroflexus, 504 h, scored visually after 3 weeks vs untreated controls, 100% = plants have died, 0% = like control plants
Outline: as §1

LOLRI = assay: Pre-emergence herbicidal action against LOLRI; format: in vivo, Lolium rigidum; conditions: Lolium rigidum, 504 h, 80 g/ha
Outline: as §1

STEME [24] = assay: Pre-emergence herbicidal action against STEME; format: in vivo, Stellaria media; conditions: Stellaria media, 504 h; for pest or weed control at 20 g/ha: dosage 20 g/ha; for pest or weed control at 80 g/ha: dosage 80 g/ha
Outline: as §1

VERPE [25] = assay: Post-emergence herbicidal action against VERPE; format: in vivo, Veronica persica; conditions: Veronica persica, 504 h
Outline: as §2

ALOMY [26] = assay: Pre-emergence herbicidal action against ALOMY; format: in vivo, Alopecurus myosuroides; conditions: Alopecurus myosuroides, 504 h, pre-emergence; for pest or weed control at 80 g/ha: scored visually after 3 weeks vs untreated controls (100% = plants have died, 0% = like control plants)
Outline: as §1

HORMU [27] = assay: Post-emergence herbicidal action against HORMU; format: in vivo, Hordeum murinum; conditions: Hordeum murinum, 504 h, dosage 20 g/ha
Outline: as §2

PHBPU [28] = assay: Pre-emergence herbicidal action against PHBPU; format: in vivo, Pharbitis purpurea; conditions: Ipomoea purpurea, 504 h
Outline: as §1

Cn1nnnc1NC(=O)c1ccc(C(F)F)c(C(=O)NC2CC2)c1Cl [Example 1-149]
90%: pest or weed control at 20 g/ha (PHBPU [4]) | pest or weed control at 80 g/ha (HORMU [9]) | pest or weed control at 20 g/ha (STEME [17]) | pest or weed control at 5 g/ha (STEME [17]) | pest or weed control at 20 g/ha (SETVI [19]) | pest or weed control at 80 g/ha (LOLRI) | pest or weed control at 20 g/ha (STEME [24]) | pest or weed control at 80 g/ha (ALOMY [26])
80%: pest or weed control at 20 g/ha (ALOMY [3]) | pest or weed control at 20 g/ha (ECHCG [6]) | pest or weed control at 80 g/ha (POLCO [7]) | pest or weed control at 5 g/ha (ABUTH [13]) | pest or weed control at 20 g/ha (AVEFA [15]) | pest or weed control at 5 g/ha (VERPE [25]; 5 g/ha) | pest or weed control at 20 g/ha (ALOMY [26]; 20 g/ha, scored visually after 3 weeks, 100% = plants have died, 0% = like control plants)
100%: pest or weed control at 20 g/ha (VIOTR [1]) | pest or weed control at 80 g/ha (VIOTR [1]) | pest or weed control at 80 g/ha (ECHCG [2]) | pest or weed control at 20 g/ha (MATIN [5]) | pest or weed control at 80 g/ha (ABUTH [8]) | pest or weed control at 20 g/ha (ABUTH [8]) | pest or weed control at 20 g/ha (MATIN [10]) | pest or weed control at 80 g/ha (MATIN [10]) | pest or weed control at 5 g/ha (VIOTR [11]; 5 g/ha) | pest or weed control at 20 g/ha (VIOTR [11]) | pest or weed control at 20 g/ha (AMARE [12]) | pest or weed control at 20 g/ha (ABUTH [13]) | pest or weed control at 20 g/ha (AVEFA [14]) | pest or weed control at 80 g/ha (AVEFA [15]) | pest or weed control at 20 g/ha (POLCO [16]) | pest or weed control at 5 g/ha (SETVI [18]) | pest or weed control at 20 g/ha (SETVI [18]) | pest or weed control at 80 g/ha (SETVI [19]) | pest or weed control at 20 g/ha (DIGSA [20]) | pest or weed control at 80 g/ha (DIGSA [20]) | pest or weed control at 80 g/ha (VERPE [21]) | pest or weed control at 5 g/ha (DIGSA [22]) | pest or weed control at 20 g/ha (DIGSA [22]) | pest or weed control at 20 g/ha (AMARE [23]) | pest or weed control at 80 g/ha (AMARE [23]) | pest or weed control at 80 g/ha (STEME [24]) | pest or weed control at 20 g/ha (VERPE [25]; 20 g/ha)

CCNC(=O)c1c(C(F)(F)F)ccc(C(=O)Nc2nnnn2CC)c1C [Example 2-26]
80%: pest or weed control at 20 g/ha (HORMU [27]) | pest or weed control at 20 g/ha (ALOMY [3]) | pest or weed control at 5 g/ha (PHBPU [4]; dosage 5 g/ha) | pest or weed control at 20 g/ha (PHBPU [4]) | pest or weed control at 5 g/ha (MATIN [5]; dosage 5 g/ha) | pest or weed control at 5 g/ha (ECHCG [6]; dosage 5 g/ha) | pest or weed control at 20 g/ha (ECHCG [6]) | pest or weed control at 80 g/ha (POLCO [7]) | pest or weed control at 20 g/ha (VIOTR [11]) | pest or weed control at 20 g/ha (AVEFA [14]) | pest or weed control at 20 g/ha (AVEFA [15]) | pest or weed control at 20 g/ha (POLCO [16]) | pest or weed control at 5 g/ha (STEME [17]) | pest or weed control at 5 g/ha (SETVI [18]) | pest or weed control at 20 g/ha (SETVI [19])
100%: pest or weed control at 20 g/ha (VIOTR [1]) | pest or weed control at 80 g/ha (VIOTR [1]) | pest or weed control at 80 g/ha (ECHCG [2]) | pest or weed control at 80 g/ha (ABUTH [8]) | pest or weed control at 20 g/ha (ABUTH [8]) | pest or weed control at 20 g/ha (MATIN [10]) | pest or weed control at 80 g/ha (MATIN [10]) | pest or weed control at 20 g/ha (AMARE [12]) | pest or weed control at 5 g/ha (ABUTH [13]) | pest or weed control at 20 g/ha (ABUTH [13]) | pest or weed control at 80 g/ha (AVEFA [15]) | pest or weed control at 20 g/ha (SETVI [18]) | pest or weed control at 80 g/ha (SETVI [19]) | pest or weed control at 20 g/ha (DIGSA [20]) | pest or weed control at 80 g/ha (DIGSA [20]) | pest or weed control at 20 g/ha (AMARE [23]) | pest or weed control at 80 g/ha (AMARE [23]) | pest or weed control at 20 g/ha (STEME [24]) | pest or weed control at 80 g/ha (STEME [24]) | pest or weed control at 80 g/ha (ALOMY [26]) | pest or weed control at 80 g/ha (PHBPU [28]; dosage 80 g/ha)
90%: pest or weed control at 20 g/ha (MATIN [5]) | pest or weed control at 80 g/ha (HORMU [9]) | pest or weed control at 20 g/ha (STEME [17]) | pest or weed control at 5 g/ha (DIGSA [22]) | pest or weed control at 20 g/ha (DIGSA [22]) | pest or weed control at 20 g/ha (PHBPU [28]; dosage 20 g/ha)
